These results are taken from US10881729B2, “Vaccine adjuvant compositions” (CHILDREN'S MEDICAL CENTER CORPORATION, priority 2014, dated 2021).

For series [1] the following is noted: cited from earlier work.
Another series has as its system newborn MoDCs. As to the kind of experiment: TNF-α ELISA of supernatants of stimulated newborn MoDCs. The class given is cell-based, human. The note with it: for TNF production in response to single TLR agonist, newborn compared to adult MoDCs: newborn vs adult MoDCs, FIG. 2. How it is done:
Isolated monocytes were seeded in 75 cm^2 tissue culture dishes for 5 days at 37° C. in a humidified incubator at 5% CO2 with 10^6 cells/ml medium. Medium consisted of RPMI 1640 medium with L-glutamine (GIBCO—LIFE TECHNOLOGIES, Carlsbad, Calif., USA) supplemented with 1% Penicillin-Streptomycin-Glutamine (PSG) (Invitrogen—Life Technologies, Carlsbad, Calif., USA) and 10% AP. This was supplemented with recombinant human (rh) IL-4 and rhGM-CSF (50 ng/ml and 100 ng/ml, respectively; R&D Systems, Minneapolis, Minn., USA). Additional fresh media and cytokines were provided on day 3 of incubation.
After 5 days, immature MoDCs were harvested by gently pipetting only the loosely adherent fraction and re-plated (10^5 cells/well) in 96-well U-bottom plates in the presence or absence of TLRAs, and/or CLRAs, and/or sterile DPBS. This MoDC array was then incubated for 18-24 hours at 37° C. in a humidified incubator at 5% CO2. After this stimulation MoDCs were harvested and processed for further functional assays. (FIG. 2).
Supernatants from MoDCs (GCI-DCs) stimulated for 18 hours in a humidified incubator (37° C., 5% CO2) with TLRAs, and/or CLRAs were analyzed for TNF-α production. For this, a human TNF enzyme-linked immunosorbent assay (ELISA) kit was used, and assay was performed according to manufacturer's instruction. (BD Biosciences, BD Biosciences, San Jose, Calif., USA). Results were read on a Versamax microplate reader with SoftMax Pro Version 5 (both from Molecular Devices, Sunnyville, Calif., USA).
The inventors further evaluated the ability of these two combinations of agonists to activate newborn MoDCs by establishing concentration-response curves and by investigating whether the enhancement in TNF secretion can be observed with similar agonists that activate the same receptors. In addition, the concentration-response curves were used to mathematically assess whether the observed enhancement by combining agonists is equal to the sum of the effects observed with individual agonists (i.e., was additive) or if these agonists activate the newborn cells synergistically. A modification of the Loewe definition of additivity was applied to determine whether the agonists act synergistically (D<1), additively (D=1) or antagonistically (D>1), where D=[Ac]/[Ae]+[Bc]/[Be], and [Ac] and [Bc] are the concentrations of compound A and B used in the dual (combined) stimulation and [Ae] and [Be] are the concentrations of A and B that induce an equal amount of TNF secretion alone.
A general note: An ELISA detects its analyte on a solid surface through an enzyme-linked reagent.

For the next series, the system named is newborn and adult MoDCs. Put plainly: Gene expression by quantitative RT-PCR array, MPLA-stimulated newborn versus adult MoDCs. Type of series: cell-based, human. How it is done: Total ribonucleic acid (RNA) of newborn and adult MoDCs (GCI-DCs and TC-DCs) was isolated with the miRNeasy kit, according to manufacturer's instructions (QIAGEN®, Inc., Valencia, Calif., USA) Total RNA from both un-stimulated cells and cells stimulated with 1 μg/ml MPLA was isolated. RNA quality was analyzed for quality and quantity by using a NanoDrop 1000 spectrophotometer (Thermo Scientific, Wilmington, Del., USA). Complementary deoxyribonucleic acid (cDNA) was prepared from total RNA from each sample with a miScript II RT Kit, according to manufacturer's instructions (QIAGEN®, Inc., Valencia, Calif., USA). cDNA was quantified on a PAHS-052Z plate (QIAGEN®, Inc., Valencia, Calif., USA). Quantitative real time-polymerase chain reaction (RT-PCR) was run on a 7300 real time PCR system (APPLIED BIOSYSTEMS®—Life Technologies, Life Technologies, Carlsbad, Calif., USA).

`CCOCc1nc2c(N)nc3ccccc3c2[nH]1` [CL097, 2-(ethoxymethyl)-1 H-imidazo[4,5-c]quinolin-4-amine]: the water solubility entry in series [1] is “highly water-soluble”.
In the case of Pam3Cys, the “TNF production in response to single TLR agonist, newborn compared to adult MoDCs” value in the series on newborn MoDCs is on record as “less TNF”.
On the same count and under the same terms, in the case of “Polyinosinic:polycytidylic acid [Poly I:C]” it was “less TNF”.
Regarding glycopyranosyl lipid A [GLA], the “synergy in TNF production with the partner agonist named in the sentence” value in the series with newborn MoDCs (newborn MoDCs, VTX-294 for R848 (with TDB), GLA for MPLA (with Zymosan), BGP for Zymosan, Zymosan with MPLA or GLA) is “also present”.
Consider monophosphoryl lipid A [MPLA], for which the “TNF production in response to single TLR agonist, newborn compared to adult MoDCs” value in the series with newborn MoDCs is on record as “less TNF”. Moreover, the “TNF gene expression, adults compared to newborns” value with newborn and adult MoDCs (MPLA 1 μg/ml, 24 hours) was 2 fold. Further, in the series with newborn and adult MoDCs (MPLA treatment, FIG. 1), the “IL-6 and IL-10, newborn MoDCs compared to adult MoDCs” value is “more”; the “expression levels of IRF7 and IRAK1, adult MoDCs compared to newborn” value is “higher”. For the same compound, in the series on newborn and adult MoDCs (after treatment with MPLA), the “IL6 and CXCL-8 (IL8) gene expression, newborn MoDCs compared to adult MoDCs” value was “greater”; the “expression of IRF7, IRAK1 and NFKB1, adult MoDCs compared to newborn” value was “greater”.
